Measured values reported in patent publication US20160235807A1, “AGONISTS OF GUANYLATE CYCLASE USEFUL FOR DOWNREGULATION OF PRO-INFLAMMATORY CYTOKINES” (SYNERGY PHARMACEUTICALS, INC., priority 2013, published 2016).
“Also recorded” adds a separate entry of the source. Bridge positions count the residues as written; N and C are the ends. Square brackets hold non-standard residues; d marks the D form. Peptide text beside a SMILES is read from it.

System: T84 cells
Test: MicroRNA microarray analysis of SP-333 treated T84 cells
Assay type: cell-based, human
Details: T84, 1 μM, 5 h
Description: T84 cells were grown to confluence in 100 mm tissue culture dishes. Cells were treated with pre-determined concentration of SP-333 (1 μM) in the presence of phosphodiesterase inhibitor, zaprinast (500 μM; Sigma Aldrich) for 5 hours. Following treatment, cells were trypsinized and the sample was divided into 3 aliquots. One aliquot was used to determine total cGMP. Another was used for extracting total RNA. The last aliquot was used to extract and purify miRNAs using Norgen's Kit (Norgen BioteK). Briefly, cells were lysed using lysis buffer, passed through a column to remove large RNA, followed by capturing miRNA using microRNA enrichment column. Purified samples were stored at −20° C. MicroRNAs were profiled on a LC Sciences microarray chip and TaqMan Open Array Human miRNA panel.

[1] = Table 8: downregulated under NF-κB
[2] = Table 8: upregulated under NF-κB

For `CC(C)C[C@@H]1NC(=O)[C@H](CCC(=O)O)NC(=O)[C@@H](NC(=O)[C@H](CCC(=O)O)NC(=O)[C@H](CC(=O)O)NC(=O)[C@H](N)CC(N)=O)CSSC[C@@H]2NC(=O)[C@H](C)NC(=O)[C@H](C(C)C)NC(=O)[C@H](CC(N)=O)NC(=O)[C@H](C(C)C)NC(=O)[C@H](CSSC[C@@H](C(=O)N[C@H](CC(C)C)C(=O)O)NC(=O)CNC(=O)[C@H]([C@@H](C)O)NC2=O)NC1=O` [SP-333, dAsn^1-Asp^2-Glu^3-Cys^4-Glu^5-Leu^6-Cys^7-Val^8-Asn^9-Val^10-Ala^11-Cys^12-Thr^13-Gly^14-Cys^15-dLeu^16] (H-[dN]DECELCVNVACTGC[dL]-OH; disulfide 4-12, 7-15; N-terminus and C-terminus assumed), which miR-133b level (Table 8: downregulated in CRC) is on record?
The miR-133b level was “increase”.

And the miR-139-5p level (Table 8: downregulated in CRC)?
Its miR-139-5p level is “increase”.

And the miR-133a level (Table 8: downregulated in CRC, p<0.01)?
The miR-133a level was “increase”.

And the miR-218 level [1]?
The miR-218 level was “increase”.

What about the miR-223 level [1] of the same molecule?
The miR-223 level was “increase”.

And the mir-29b level [1]?
Its mir-29b level is “increase”.

And the miR-16 level (Table 8: downregulated under NF-κB, p<0.01)?
The miR-16 level was “upregulated; also recorded: increase”.

What about the miR-15a level (Table 8: downregulated under NF-κB, p<0.05) of the same molecule?
The miR-15a level was “upregulated; also recorded: increase”.

What about the miR-92 level (Table 8: upregulated in CRC) of the same molecule?
The miR-92 level was “decrease”.

What about the miR-26b level (Table 8: upregulated in IBD) of the same molecule?
The miR-26b level was “decrease”.

And the miR-28-5p level (Table 8: upregulated in IBD)?
Its miR-28-5p level is “decrease”.

What about the miR-98 level (Table 8: upregulated in IBD) of the same molecule?
Its miR-98 level is “decrease”.

What about the miR-99a level (Table 8: upregulated in IBD) of the same molecule?
The miR-99a level was “decrease”.

What about the miR-203 level (Table 8: upregulated in IBD) of the same molecule?
Its miR-203 level is “decrease”.

And the miR-362-3p level (Table 8: upregulated in IBD)?
The miR-362-3p level was “decrease”.

And the miR-532-3p level (Table 8: upregulated in IBD)?
The miR-532-3p level was “decrease”.

What about the miR-10a level [2] of the same molecule?
The miR-10a level was “decrease”.

What about the miR-27b level [2] of the same molecule?
The miR-27b level was “decrease”.

What about the miR-30b level [2] of the same molecule?
Its miR-30b level is “decrease”.

What about the miR-301 level [2] of the same molecule?
Its miR-301 level is “decrease”.

What about the miR-199-3p level (Table 8: upregulated under NF-κB and cMyc) of the same molecule?
The miR-199-3p level was “decrease”.

What about the miR-224 level (Table 8: upregulated under cMyc) of the same molecule?
Its miR-224 level is “decrease”.

What about the miR-125b level (p<0.001) of the same molecule?
The miR-125b level was “upregulated”.

And the let-7i level (p<0.005)?
Its let-7i level is “upregulated”.

What about the miR-494 level (p<0.005) of the same molecule?
Its miR-494 level is “reduced”.

What about the “miR-41-3p level (negative regulator of c-Src)” value (p<0.01) of the same molecule?
Its value is “significantly increased”.

And the miR-200c level (p<0.01)?
The miR-200c level was “reduced”.

What about the “family of miR-29 level” value (p<0.05) of the same molecule?
Its value is “upregulated”.

What about the miR-30c level (p<0.05) of the same molecule?
The miR-30c level was “increased”.

What about the miR-92a level (p<0.05) of the same molecule?
The miR-92a level was “reduced”.
